Experimental data: patent publication US4333930A, “Orthoarylideneaminophenethylamines and pharmaceutical compositions” (priority 1980, dated 1982)
Where two headings read alike, the source gives them in different places.

Columns and labels:
phenylbenzoquinone (PBQ) = assay: Analgesic activity using phenylbenzoquinone (PBQ) as noxious agent, Table 2; format: in vivo, male Swiss mouse; settings: Mus musculus; for inhibition in vivo at 100 mg/kg: read-out: % of analgesic activity, 100 mg/kg, male Swiss mouse, PBQ; for inhibition in vivo at 200 mg/kg: read-out: % of analgesic activity, 200 mg/kg, male Swiss mouse, PBQ
Description: The analgesic activity was determined with the male Swiss mouse using phenylbenzoquinone (PBQ) (a variation of the method of Siegmund et al, Proc. Soc. Exp. Med., […], 95, 729-31) as the noxious agent. Twenty-eightminutes after having administered the test products in a suspension in a 6% gum base, the PBQ solution was injected. The mice were then observed ca. 5 mn. for the next five minutes.
% of analgesic activity as a function of
the dose expressed in mg/kg

[1] = system: trembling induced by oxotremorine; assay: Antagonism of trembling induced by oxotremorine, Table 7; format: in vivo; settings: po, read-out: % of inhibition of trembling induced by oxotremorine
Description: (§1) The psychotropic profile of the present invention products has been characterized with the animals in numerous tests some of whose results are shown hereinafter. The products of the invention were always administered orally in 6% gum base.
(§2) Certain tests made it possible to show antidepressive activities. These are tests of antagonism to the effects of reserpine, oxotremorine (according to Everett G. M. et al, Science, 1956, 124, 79 and Levy J. et al, Therapie 1965, 20, 265) and to despair (according to Porsolt P. D. et al, Eur. J. Pharmacol., 1978, 47, 379-91).
% of inhibition of trembling induced by
oxotremorine as a function of the dose
(§3) administered expressed in mg/kg

Swiss mice = assay: Oral toxicity (mortality) in the mouse, Table 1; format: in vivo; settings: 1000 mg/kg, 14 days, 20160 min
Description: (§4) The mortality percentages caused by the products of the present invention administered orally to Swiss mice are shown in Table 1. The animals, free of specific pathological organism were housed in an air conditioned room from 24 to 48 hours before the start of the experiments. They were divided up into lots of 5 males and 5 females. With the animals unfed for 24 hours, the substances were administered intragastrically in a base of 6% gum arabic in a volume equal to 0.1 ml for 10 g of animal weight. The mortality was recorded at 14 days.
(§5) % of mortality as a function of the dose

[2] = Oral toxicity (mortality) in the mouse, Table 1; format: in vivo; settings: mouse, in vivo, po, Swiss mice, 14 days
Description: as §4, §5

[3] = system: number of displacements of the animal; assay: Four plates test (anxiolytic activity), Table 5; format: in vivo; settings: oral, mouse
Description: as §1
A certain number of products manifest an anxiolytic activity evidenced in the test with the four plates with the mouse (Table 5).
% of increase in the number of displacements of the
animal as a function of the dose expressed in mg/kg

[4] = system: number of escapes the animal made in 5 minutes; assay: Escape test, Table 3; format: in vivo, mouse; settings: 5 min, read-out: % of activity (variation of the number of escapes)
Description: The products of the invention were always administered orally in 6% gum base.
The notation NS signifies that the difference between the results noted for the product and the results noted for the excipient alone is not significant at the threshold 0.05 according to the Student t Test.

[5] = system: salivation induced by pilocarpine; assay: Inhibition of salivation induced by pilocarpine (anticholinergic activity), Table 9; format: in vivo; settings: oral
Description: as §1
Certain products manifest an anticholinergic activity evidenced in the inhibition test of salivation induced by pilocarpine (Table 9).
% of inhibition of salivation induced by
pilocarpine as a function of the dose
as §3

despair = assay: Test of despair (Porsolt), Table 8; format: in vivo; settings: oral
Description: as §1, §2
Test of despair: % of antagonism as a function
of the dose administered orally and expressed

[6] = system: stereotype induced by apomorphine; assay: Antagonism of the stereotype induced by apomorphine, Table 4; format: in vivo
Description: as §1
% of activity vis-a-vis the stereotype
induced by apomorphine as a function of the
administered dose expressed in mg/kg

catalepsy = assay: Catalepsy; format: in vivo; settings: 400 and 600 mg/kg
[7] = system: ptosis induced by reserpine; assay: Antagonism of ptosis induced by reserpine, Table 6; format: in vivo; settings: po, read-out: % of inhibition of ptosis induced by reserpine
Description: as §1, §2
% of inhibition of ptosis induced by reserpine
as a function of the dose administered orally

Row | Compound | inhibition in vivo at 100 mg/kg (phenylbenzoquinone (PBQ)) | inhibition in vivo at 200 mg/kg (phenylbenzoquinone (PBQ)) | change in vivo at 50 mg/kg [1] | change in vivo at 100 mg/kg [1] | change in vivo at 200 mg/kg [1] | mortality at 336 h ([2]; 1500 mg/kg) | % of increase in the number of displacements of the animal ([3]; 25 mg/kg) | change in vivo at 100 mg/kg ([4]; Mus musculus, po) | change in vivo at 200 mg/kg ([4]; Mus musculus, po) | % of inhibition of salivation induced by pilocarpine ([5]; 200 mg/kg) | Test of despair: % of antagonism (despair; 100 mg/kg) | Test of despair: % of antagonism (despair; 200 mg/kg) | % of increase in the number of displacements of the animal ([3]; 3 mg/kg) | % of increase in the number of displacements of the animal ([3]; 5 mg/kg) | % of increase in the number of displacements of the animal ([3]; 10 mg/kg) | further results
1 | CN(C)CCc1cc2c(cc1N=Cc1cccnc1)OCO2 [COR 01 170, 6-dimethylaminoethyl N-(pyridylidene-3)-1,3-benzodioxole-5-ylamine] | 30% | 39% | -40% | -50% | -78% | 100% | +18% | -32% | -59% | -57% | -39% | -33% | – | – | – | % of mortality (Swiss mice): 0%; % of increase in the number of displacements of the animal ([3]; 40 mg/kg): +57%; % of increase in the number of displacements of the animal ([3]; 50 mg/kg): +36%; % of increase in the number of displacements of the animal ([3]; 60 mg/kg): +69%; % of increase in the number of displacements of the animal ([3]; 75 mg/kg): +72%; % of inhibition of salivation induced by pilocarpine ([5]; 100 mg/kg): -18%; Test of despair: % of antagonism (despair; 50 mg/kg): -39%
2 | CN(C)CCc1cc2c(cc1N=CC=Cc1ccccc1)OCO2 [COR 01 176] | 23% | 39% | -40% | -50% | -20% | – | +66% | -33% | -43% | – | – | – | +101% | +117% | +72% | % of activity vis-a-vis the stereotype induced by apomorphine ([6]; 200 mg/kg, oral): -64%; antagonism vis-a-vis the stereotype with apomorphine ([6]; in words): manifest an antagonism; catalepsy (catalepsy): slight catalepsy; mortality at 336 h ([2]; 1000 mg/kg): 0%; % of increase in the number of displacements of the animal ([3]; 20 mg/kg): +72%; change in vivo at 0.5 mg/kg ([4]; Mus musculus, po): -29%; change in vivo at 1 mg/kg ([4]; Mus musculus, po): -40%; change in vivo at 3 mg/kg ([4]; Mus musculus, po): -39%; change in vivo at 5 mg/kg ([4]; Mus musculus, po): -33%; change in vivo at 25 mg/kg ([4]; Mus musculus, po): -32%; change in vivo at 50 mg/kg ([4]; Mus musculus, po): -37%
3 | CN(C)CCc1ccccc1N=Cc1cccnc1 [COR 01 184] | 44% | 55% | 0% | -22% | -17% | 0% | – | – | – | -23% | -20% | -18% | +73% | +56% | +61% | inhibition in vivo at 50 mg/kg (phenylbenzoquinone (PBQ); read-out: % of analgesic activity, 50 mg/kg, male Swiss mouse, PBQ): 34%; change in vivo at 50 mg/kg [7]: -13%; change in vivo at 100 mg/kg [7]: -39%; change in vivo at 200 mg/kg [7]: -34%; change in vivo at 25 mg/kg [1]: -20%; mortality at 336 h ([2]; 2000 mg/kg): 30%; % of increase in the number of displacements of the animal ([3]; 1.5 mg/kg): +89%; change in vivo at 5 mg/kg ([4]; 5 mg/kg, oral, mouse, 5 minutes): -34%; change in vivo at 10 mg/kg ([4]; 10 mg/kg, oral, mouse, 5 minutes): -26%; change in vivo at 25 mg/kg ([4]; 25 mg/kg, oral, mouse, 5 minutes): -23%; change in vivo at 50 mg/kg ([4]; 50 mg/kg, oral, mouse, 5 minutes): -34%; change in vivo at 100 mg/kg ([4]; 100 mg/kg, oral, mouse, 5 minutes): -47%; change in vivo at 200 mg/kg ([4]; 200 mg/kg, oral, mouse, 5 minutes): -46%
